Usually logP stands for the decadic logarithm of the partition coefficient of the neutral form, usually between octanol and water. Read a low logP as lower lipophilicity.

`NN(C(=O)c1ccccc1)c1ccccc1` came in with a log partition coefficient (logP) of 2.44. Take `COc1ccc(C(=O)N(N)c2ccccc2)cc1`: the logP came out at 2.94. To `NN(C(=O)c1ccc([N+](=O)[O-])cc1)c1ccccc1` belongs 2.62; to `CC=NN(C(=O)c1ccccc1)c1ccccc1`, 2.88; to `Cc1ccc(C(=O)N(C)NC(=S)Nc2ccccc2)cc1`, 2.88. On to `CN(N)C(=O)c1ccccc1`, for which the lipophilicity (logP) stood at 0.96.

With `O=C(c1ccc([N+](=O)[O-])cc1)N(NC(=S)Nc1ccccc1)c1ccccc1`, the logP is 3.91.

The compound `CC=NN(C(=O)c1ccc(OC)cc1)c1ccccc1` showed a logP of 3.27. With `CN(N)C(=O)c1ccc([N+](=O)[O-])cc1` the figure was 0.99; with `C/C=N/N(C(=O)c1ccc([N+](=O)[O-])cc1)c1ccccc1`, 3.14. With `Cc1ccc(C(=O)N(C)N)cc1` the figure was 1.57; with `COc1ccc(C(=O)N(C)NC(=S)Nc2ccccc2)cc1`, 2.8; with `CN(NC(=S)Nc1ccccc1)C(=O)c1ccc([N+](=O)[O-])cc1`, 2.69. With `Cc1ccc(C(=O)N(N)c2ccccc2)cc1` the figure was 3.1; with `C/C=N/N(C(=O)c1ccc(C)cc1)c1ccccc1`, 3.39. Consider `COc1ccc(C(=O)N(C)N)cc1`, for which the logP was 1.23. With `Cc1ccc(C(=O)N(NC(=S)Nc2ccccc2)c2ccccc2)cc1` the figure was 4.12.

The values are drawn from the SangsterLogP compilation.
